Biological target: T1, KRAS G12C 1-169, his-tagged protein, GDP-loaded (Homo sapiens, UniProt P01116, G12C)
T1 construct: KRAS G12C 1-169, his-tagged protein, GDP-loaded; His tag
Assay: Biochemical assay: covalent modification of KRAS G12C, analysed by mass spectrometry (RapidFire/TOF or Q-Exactive); also: time not given here
Type: binding
Conditions: Modification activity, modification percentage from MS peak intensities
In short: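 Covalent adduct formation was quantified by intact-protein mass spectrometry, either TOF or C4 LC-Q Exactive Plus, as percent modified versus unmodified protein after deconvolution. Compounds at 8 or 32 μM final were incubated with 0.5 or 2 μM GDP-bound KRAS G12C(1-169)-His in Hepes/NaCl/MgCl2 buffer before acid quench.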

Compound | Binding %
C=CC(=O)N1CC2(CCN(c3nc(N4CCOCC4)nc(-c4c(C)ccc5cnn(C6CC6)c45)c3C#N)C2)C1 [Compound I-97, 4-(2-acryloyl-2,6-diazaspiro[3.4]octan-6-yl)-6-(1-cyclopropyl-6-methyl-1H-indazol-7-yl)-2-morpholinopyrimidine-5-carbonitrile] | + (+ indicates binding activity greater than 0% and up to 50%)
C/C=C/C(=O)N1CC2(CCN(c3nc(OCc4ccccn4)nc(-c4c(C)ccc5[nH]ncc45)c3C#N)C2)C1 [Compound I-98, (E)-4-(2-(but-2-enoyl)-2,6-diazaspiro[3.4]octan-6-yl)-6-(5-methyl-1H-indazol-4-yl)-2-(pyridin-2-ylmethoxy)pyrimidine-5-carbonitrile] | + (+ indicates binding activity greater than 0% and up to 50%)
CC#CC(=O)N1CC2(CCN(c3nc(OCc4ccccn4)nc(-c4c(C)ccc5[nH]ncc45)c3C#N)C2)C1 [Compound I-99, 4-(2-(but-2-ynoyl)-2,6-diazaspiro[3.4]octan-6-yl)-6-(5-methyl-1H-indazol-4-yl)-2-(pyridin-2-ylmethoxy)pyrimidine-5-carbonitrile] | + (+ indicates binding activity greater than 0% and up to 50%)
C=CC(=O)N1CC2(CCN(c3nc(N4CCOCC4)nc(-c4cccc5ccccc45)c3C#N)C2)C1 [Compound I-100, 4-(2-acryloyl-2,6-diazaspiro[3.4]octan-6-yl)-2-morpholino-6-(naphthalen-1-yl)pyrimidine-5-carbonitrile] | + (+ indicates binding activity greater than 0% and up to 50%)
C=CC(=O)N1CC2(CCN(c3nc(OC[C@@H]4CCCN4C)nc(-c4cccc5ccccc45)c3C#N)C2)C1 [Compound I-101, (S)-4-(2-acryloyl-2,6-diazaspiro[3.4]octan-6-yl)-2-((1-methylpyrrolidin-2-yl)methoxy)-6-(naphthalen-1-yl)pyrimidine-5-carbonitrile] | + (+ indicates binding activity greater than 0% and up to 50%)
C=CC(=O)N1CC2(CCN(c3nc(OCc4ccccn4)nc(-c4c(C)ccc5cnn(C)c45)c3C#N)C2)C1 [Compound I-102, 4-(2-acryloyl-2,6-diazaspiro[3.4]octan-6-yl)-6-(1,6-dimethyl-1H-indazol-7-yl)-2-(pyridin-2-ylmethoxy)pyrimidine-5-carbonitrile] | ++ (++ indicates binding activity from 50 to 85%)
C=CC(=O)N1CC2(CCN(c3nc(OC[C@@H]4CCCN4C)nc(-c4c(C)ccc5cnn(C6CC6)c45)c3C#N)C2)C1 [Compound I-103, 4-(2-acryloyl-2,6-diazaspiro[3.4]octan-6-yl)-6-(1-cyclopropyl-6-methyl-1H-indazol-7-yl)-2-(((S)-1-methylpyrrolidin-2-yl)methoxy)pyrimidine-5-carbonitrile] | + (+ indicates binding activity greater than 0% and up to 50%)
CC#CC(=O)N1CC2(CCN(c3nc(OC[C@@H]4CCCN4C)nc(-c4c(C)ccc5[nH]ncc45)c3C#N)C2)C1 [Compound I-104, 4-(2-(but-2-ynoyl)-2,6-diazaspiro[3.4]octan-6-yl)-6-(5-methyl-1H-indazol-4-yl)-2-(((S)-1-methylpyrrolidin-2-yl)methoxy)pyrimidine-5-carbontrile] | + (+ indicates binding activity greater than 0% and up to 50%)
C/C=C/C(=O)N1CC2(CCN(c3nc(OC[C@@H]4CCCN4C)nc(-c4c(C)ccc5[nH]ncc45)c3C#N)C2)C1 [Compound I-105, 4-(2-((E)-but-2-enoyl)-2,6-diazaspiro[3.4]octan-6-yl)-6-(5-methyl-1H-indazol-4-yl)-2-(((S)-1-methylpyrrolidin-2-yl)methoxy)pyrimidine-5-carbonitrile] | + (+ indicates binding activity greater than 0% and up to 50%)
C=CC(=O)N1CC2(CCN(c3nc(OCc4ccccn4)nc(-c4c(C)ccc5cnn(C6CC6)c45)c3C#N)C2)C1 [Compound I-106, 4-(2-acryloyl-2,6-diazaspiro[3.4]octan-6-yl)-6-(1-cyclopropyl-6-methyl-1H-indazol-7-yl)-2-(pyridin-2-ylmethoxy)pyrimidine-5-carbontrile] | + (+ indicates binding activity greater than 0% and up to 50%)
C=CC(=O)N1CC2(CCN(c3nc(OC[C@@H]4CCCN4C)nc(-c4ccccc4-c4cn[nH]c4)c3C#N)C2)C1 [Compound I-107, (S)-4-(2-(1H-pyrazol-4-yl)phenyl)-6-(2-acryloyl-2,6-diazaspiro[3.4]octan-6-yl)-2-((1-methylpyrrolidin-2-yl)methoxy)pyrimidine-5-carbonitrile] | + (+ indicates binding activity greater than 0% and up to 50%)
C=CC(=O)N1CC2(CCN(c3nc(OC[C@@H]4CCCN4C)nc(-c4c(C)ccc5[nH]nc(N)c45)c3C#N)C2)C1 [Compound I-108, 4-(2-acryloyl-2,6-diazaspiro[3.4]octan-6-yl)-6-(3-amino-5-methyl-1H-indazol-4-yl)-2-(((S)-1-methylpyrrolidin-2-yl)methoxy)pyrimidine-5-carbonitrile] | ++ (++ indicates binding activity from 50 to 85%)
C=CC(=O)N1CC2(CCN(c3nc(N4CCOC(c5ccccc5)C4)nc(-c4c(C)ccc5[nH]ncc45)c3C#N)C2)C1 (stereo not drawn) [Compound I-109, 4-(2-acryloyl-2,6-diazaspiro[3.4]octan-6-yl)-6-(5-methyl-1H-indazol-4-yl)-2-(2-phenylmorpholino)py-rimidine-5-carbonitrile] | ++ (++ indicates binding activity from 50 to 85%)
C=CC(=O)N1CC2(CCN(c3nc(N4CCCC(N(C)C)C4)nc(-c4c(C)ccc5[nH]ncc45)c3C#N)C2)C1 (stereo not drawn) [Compound I-110, 4-(2-acryloyl-2,6-diazaspiro[3.4]octan-6-yl)-2-(3-(dimethylamino)piperi-din-1-yl)-6-(5-methyl-1H-indazol-4-yl)pyrimidine-5-carbonitrile] | +++ (+++ indicates binding activity greater than 85%)
C=CC(=O)N1CC2(CCN(c3nc(N4CCN(C)CC4=O)nc(-c4c(C)ccc5[nH]ncc45)c3C#N)C2)C1 [Compound I-111, 4-(2-acryloyl-2,6-diazaspiro[3.4]octan-6-yl)-6-(5-methyl-1H-indazol-4-yl)-2-(4-methyl-2-oxopiperazin-1-yl)pyrimidine-5-carbonitrile] | + (+ indicates binding activity greater than 0% and up to 50%)
C=CC(=O)N1CC2(CCN(c3nc(N4CCC5(CC4)CN(C)C5)nc(-c4c(C)ccc5[nH]ncc45)c3C#N)C2)C1 [Compound I-112, 4-(2-acryloyl-2,6-diazaspiro[3.4]octan-6-yl)-6-(5-methyl-1H-indazol-4-yl)-2-(2-methyl-2,7-diazaspiro[3.5]nonan-7-yl)pyrimidine-5-carbonitrile] | +++ (+++ indicates binding activity greater than 85%)
C=CC(=O)N1CC2(CCN(c3nc(OCc4ccccn4)nc(-c4cccc5ccccc45)c3C#N)C2)C1 [Compound I-113, 4-(2-acryloyl-2,6-diazaspiro[3.4]octan-6-yl)-6-(naphthalen-1-yl)-2-(pyridin-2-ylmethoxy)pyrimidine-5-carbonitrile] | + (+ indicates binding activity greater than 0% and up to 50%)
C=CC(=O)N1CC2(CCN(c3nc(OCc4ccccn4)nc(-c4cc(O)cc5ccccc45)c3C#N)C2)C1 [Compound I-114, 4-(2-acryloyl-2,6-diazaspiro[3.4]octan-6-yl)-6-(3-hydroxynaphthalen-1-yl)-2-(pyridin-2-ylmethoxy)pyrimidine-5-carbonitrile] | +++ (+++ indicates binding activity greater than 85%)
